Our source for the inhibition and IC50 values is patent US12617777B2, “GPR84 antagonists and uses thereof” (Liminal BioSciences Limited, priority 2021, dated 2026).

For this test, the target named is T1, human GPR84 receptor (Homo sapiens, UniProt Q9NQS5).
T1 construct: host or cells: HEK293, transient transfection
Nature of the test: Gαi biosensor BRET assay in HEK293 cells (antagonism of ZQ-16). The format is cell-based. Conditions: for inhibition at 2 µM: HEK293, single concentration 2 μM (designated A); for IC50: HEK293 cells, antagonism of 200 nmol/L ZQ-16; for inhibition at 25 µM: HEK293, single concentration 25 μM (designated I); for inhibition at 10 µM: HEK293, single concentration 10 μM (designated F). The method, boiled down:
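Antagonist mode: test compound 5 min at 37° C, followed by ZQ-16 agonist (200 nmol/L, 5 min, room temperature), in HEK293 cells transfected with GPR84 plus Rluc8-tagged Gαi2, GFP10-Gγ2 and Gβ1. Readout as GFP10/Rluc8 emission ratio after 5 μmol/L coelenterazine 400A, net of Rluc8-only and vehicle signal.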

T1 sequence (Q9NQS5 whole entry): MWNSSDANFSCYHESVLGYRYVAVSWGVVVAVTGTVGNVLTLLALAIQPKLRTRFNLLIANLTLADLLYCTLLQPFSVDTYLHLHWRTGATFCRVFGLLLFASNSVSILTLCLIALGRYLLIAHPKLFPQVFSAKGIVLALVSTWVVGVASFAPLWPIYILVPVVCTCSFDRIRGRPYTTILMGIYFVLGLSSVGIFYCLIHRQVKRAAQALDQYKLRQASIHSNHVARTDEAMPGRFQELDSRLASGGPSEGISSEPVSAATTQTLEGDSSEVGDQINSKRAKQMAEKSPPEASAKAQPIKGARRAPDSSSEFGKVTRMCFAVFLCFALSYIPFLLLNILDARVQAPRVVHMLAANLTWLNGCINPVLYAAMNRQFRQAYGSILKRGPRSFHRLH

`COC(c1cn(CC2OCC(C)(C)CO2)nn1)c1cc(C#CC2CC2)c(F)cc1C` (stereo not drawn) [Compound I-724] showed an inhibition at 2 µM above 75% and an IC50 of at most 300 nM.
The matching figures for `Cc1ccc(C#CC2CC2)cc1C1(c2cn(CC3OCC(C)(C)CO3)nn2)OCCO1` [Compound I-721]: above 75% and 300 to 1000 nM.
The molecule `C(#CC1CC1)c1ccc(-c2cn(CCOCC3CCCCO3)nn2)cc1` (stereo not drawn) [Compound I-83] showed an inhibition at 25 µM of 25 to 50%.
Molecule `C(#CC1CC1)c1ccc2c(c1)CCc1cnn(CC3CCCCO3)c1-2` (stereo not drawn) [Compound I-329] registered an inhibition at 10 µM of 25 to 50% and an IC50 of 300 to 1000 nM.
Take `Cc1ccc(C#CC2CC2)cc1Nc1cnn(CC2OCC(C)(C)CO2)n1` [Compound I-759, N-(5-(cyclopropylethynyl)-2-methylphenyl)-2-((5,5-dimethyl-1,3-dioxan-2-yl)methyl)-2H-1,2,3-triazol-4-amine]: the inhibition at 10 µM was at most 25%.
On the same count and under the same terms, the result for `FC(F)c1cc(C#CC2CC2)ccc1-c1cn(CC2CCCCO2)nn1` (stereo not drawn) [Compound I-560] reads 25 to 50%; that for `Cc1cc(N2CC(F)C2)ccc1-c1cn(CC2CCCCO2)nn1` (stereo not drawn) [Compound I-529], at most 25%; that for `Cc1cc(C#CCN2CCCN(C)CC2)ccc1-c1cn(CC2CCCCO2)nn1` (stereo not drawn) [Compound I-159], at most 25%.
`CN(C)Cc1cc(C#CC2CC2)ccc1-c1cn(CC2CCCCO2)nn1` (stereo not drawn) [Compound I-356] registered an inhibition at 10 µM of 25 to 50%.
`COc1ccc(Cl)c(N(C)c2cn(CC3OCC(C)(C)CO3)nn2)c1` [Compound I-813] gave an inhibition at 10 µM above 75%.
Same read-out and setting: then `Cc1cc(N2CC(C)(C)C2)cnc1-c1cn(CC2CCCCO2)nn1` (stereo not drawn) [Compound I-380], with above 75%.
With `CN(C)c1cc(N2CC3(CCOCC3)C2)ccc1-c1cn(CC2OCC(C)(C)CO2)nn1` [Compound I-854], the inhibition at 2 µM is above 75%.
Same read-out and setting: then `FC(F)(F)COc1cc(C#CC2CC2)cnc1-c1cn(CC2OCC3(CCC3)O2)nn1` (stereo not drawn) [Compound I-815], with above 75%.
Take `C(#CC1CC1)c1cccc(-c2nnn(CC3COCCO3)n2)c1` (stereo not drawn) [Compound I-6]: the inhibition at 25 µM was at most 25%.
On to `Cc1cc(N2CC(C)(CO)C2)cnc1-c1cn(CC2OCC(C)(C)CO2)nn1` [Compound I-595], for which the inhibition at 10 µM was above 75%.
In turn, `Cc1cc(N2CCC[C@@H](N(C)Cc3ccccc3)C2)ccc1-c1cn(C[C@H]2CCCCO2)nn1` (relative stereo) [Compound I-238] had an inhibition at 10 µM of 50 to 75% and an IC50 of 1000 to 3000 nM.
In turn, `Cc1cc(N2CCCC(N(C)C)C2)ccc1-c1cn(CC2CCCCO2)nn1` (stereo not drawn) [Compound I-153] had an inhibition at 10 µM of at most 25%.
Molecule `Cc1ccc(C#CC2CC2)cc1N(C)c1cn(CC2OCC3(CC3)CO2)nn1` [Compound I-842] gave an inhibition at 2 µM of 50 to 75%.
For the molecule `Cc1cc(C#CCNC2CC2)ccc1-c1cn(CC2OCC(C)(C)CO2)cn1` [Compound I-820], the inhibition at 2 µM is above 75% and the IC50 was 300 to 1000 nM.
In turn, `Cc1cc(N2CC3(CCCN3C)C2)ccc1-c1cn(CC2CCCCO2)nn1` (stereo not drawn) [Compound I-148] had an inhibition at 10 µM of 50 to 75%.
With `Cc1ccc(C#CC2CC2)cc1Cc1cn(CC2CCc3ccccc3O2)nn1` (stereo not drawn) [Compound I-551], the inhibition at 10 µM was in the range of 25 to 50%.
`Cc1cc(N2CCCCC2)ccc1-c1cn(CC2CCCCO2)nn1` (stereo not drawn) [Compound I-256] had an inhibition at 10 µM of at most 25%.
With `Cc1cc(OCC(C)(C)N)ccc1-c1cn(CC2CCCCO2)nn1` (stereo not drawn) [Compound I-287], the inhibition at 10 µM was at most 25%.
In the case of `Cc1cc(N2CC3(CCCN3c3ccccn3)C2)ccc1-c1cn(CC2OCC(C)(C)CO2)nn1` [Compound I-689], the inhibition at 10 µM was above 75% and the IC50 was in the range of 1000 to 3000 nM.
`COC(c1cn(CC2CCCCO2)nn1)c1cc(C#CC(C)(C)O)ccc1F` (stereo not drawn) [Compound I-632] came in with an inhibition at 10 µM of at most 25%.
As for `Cc1cc(C#CCN(C)C2CC2)ccc1-c1cn(CC2OCC(C)(C)CO2)nn1` [Compound I-698], the inhibition at 10 µM was above 75% and the IC50 was in the range of 300 to 1000 nM.
The molecule `Cc1c(-c2ccc(C#CC3CC3)cc2)nnn1CC1CCCO1` (stereo not drawn) [Compound I-115] came in with an inhibition at 10 µM of at most 25%.
In turn, `Cc1cc(-c2cn(CC3CCCCO3)nn2)nnc1C#CC1CC1` (stereo not drawn) [Compound I-434] registered an inhibition at 10 µM of at most 25%.
On the same count and under the same terms, then `CCc1cc(C#CCNC2CC2)ccc1-c1cn(CC2OCC(C)(C)CO2)nn1` [Compound I-851], with at most 25%.
With `Cc1ccc(C#CCNCc2ccccc2)cc1-c1cn(CC2CCCCO2)nn1` (stereo not drawn) [Compound I-201], the inhibition at 10 µM was at most 25%.
`Cc1cc(N2CCN(Cc3ccccn3)CC2)ccc1-c1cn(CC2CCCCO2)nn1` (stereo not drawn) [Compound I-237]: the inhibition at 10 µM was above 75% and the IC50 is 1000 to 3000 nM.
Turning to `CC1(C)COC(Cn2cc(-c3ccc(N4CC(C)(CO)C4)cc3CC(F)(F)F)nn2)OC1` [Compound I-735], the inhibition at 2 µM was above 75% and the IC50 was at most 300 nM.
As for `Cc1cc2ccc(N3CC(C)(C)C3)cc2nc1-c1cn(CC2CCCCO2)nn1` (stereo not drawn) [Compound I-622], the inhibition at 2 µM was at most 25%.
In turn, `Cc1cc(C#CC2CC2)ccc1-c1cn(Cc2ncccn2)nn1` [Compound I-262] had an inhibition at 10 µM of 50 to 75%.
Still for that read-out and setting: then `Cc1cc(N2CCN(c3cccnc3)CC2)ccc1-c1cn(CC2CCCCO2)nn1` (stereo not drawn) [Compound I-545], with at most 25%.
The same measure, in the same setting: then `Cc1cc(N2CCNCC2)ccc1-c1cn(CC2CCCCO2)nn1` (stereo not drawn) [Compound I-183], with at most 25%.
Consider `Cc1cc(N2CC(C)(CN3CC(C)(C)C3)C2)ccc1-c1cn(CC2CCCCO2)nn1` (stereo not drawn) [Compound I-660], for which the inhibition at 10 µM was at most 25%.
Same read-out and setting: the result for `Cc1cc(C#CCN2CC(C)(C)C2)cnc1-c1nnnn1CC1OCC(C)(C)CO1` [Compound I-836] reads 50 to 75%.
For the molecule `CC1(C)COC(Cn2cc(-c3ncc(C#CCNC4CC4)cc3OC3CC3)nn2)OC1` [Compound I-856], the inhibition at 10 µM was above 75%.
Regarding `Cc1cc(C#CCn2cc(-c3ccc(N(C)C)cc3)nn2)cnc1-c1cn(CC2CCCCO2)nn1` (stereo not drawn) [Compound I-712], the inhibition at 2 µM is above 75% and the IC50 is at most 300 nM.
In turn, `C(#CC1CC1)c1ccc(-c2nnnn2CC2CCCCO2)cc1` (stereo not drawn) [Compound I-346] yielded an inhibition at 25 µM of 25 to 50% and an IC50 above 3000 nM.
The molecule `CCN(CC)c1cc(N2CC(C)(CO)C2)ccc1-c1cn(CC2OCC3(CC3)CO2)nn1` [Compound I-800] came in with an inhibition at 10 µM of 50 to 75% and an IC50 of 300 to 1000 nM.
In turn, `COC1CCN(c2ccc(-c3cn(CC4CCCCO4)nn3)c(C)c2)C1` (stereo not drawn) [Compound I-463] yielded an inhibition at 2 µM of at most 25%.
Regarding `CC(C)Oc1cc(C#CCNc2ccccc2)cnc1-c1cn(CC2CC(C)(C)CO2)nn1` (stereo not drawn) [Compound I-526], the inhibition at 10 µM was 50 to 75% and the IC50 was at most 300 nM.
Regarding `CC1(C)COC(Cn2cc(-c3ncc(C#CC4CC4)cc3Cl)nn2)OC1` [Compound I-708], the inhibition at 10 µM was above 75% and the IC50 is at most 300 nM.
Take `CN(C)c1cc(C#CCNc2ccccc2)ccc1-c1cn(CC2CCCCO2)nn1` (stereo not drawn) [Compound I-203]: the inhibition at 2 µM is above 75% and the IC50 lay in the range of 1000 to 3000 nM.
With `Cc1cc(N2CC(C)(NCc3ccccn3)C2)c(F)cc1-c1cn(CC2CCCCO2)nn1` (stereo not drawn) [Compound I-737], the inhibition at 10 µM is above 75% and the IC50 was in the range of 300 to 1000 nM.
